Consider five compounds from US20030153621A1, “Use of 13-hode as a regulator of vascular biocompatibility and an inhibitor of cell hyperplasia” (priority 2000, published 2003).

The conditions of data set [1]: dose comparable to that used clinically; cited from earlier work.
In data set [2] the test system is Platelet/injured VW interactions. Particulars: dose comparable to that used clinically; cited from earlier work.
For the next data set, the system named is intimal SMC hyperplasia. Particulars: cited from earlier work.
The conditions of data set [3]: 3.2 gm daily (20 capsules) for 30 days; cited from earlier work.
Data set [4] concerns Platelet/injured VW interactions. Conditions: 3.2 gm daily for 30 days; cited from earlier work.
Data set [5] is described as follows: Plasma 13-HODE levels in rabbits after oral 13-HODE. It is filed as in vivo, New Zealand white rabbits. The method, then: (§1) New Zealand white rabbits (half males/half females; 2.5-2.9 kg) were used throughout. Rabbits were treated with 100, 400 or 1000 μg/kg/day of purified 13-HODE suspended in corn oil or ethyl-eicosapentaenoic acid (EPA), or with an equivolume of either suspending vehicle (total volume 1 ml) for 7 days. Serial blood samples were collected before, during and after treatment to assess the levels of 13-HODE in plasma. On day 7, the treatments were stopped. At that time, the rabbits were anaesthetised with a combination of Atravet, Ketamine, Vetrepham and glycopyrolate, given subcutaneously. Both carotid arteries of anaesthetised rabbits were isolated between 2 temporary ligatures, first by applying the proximal ligature, then allowing the blood to drain from the segment, and then applying the distal ligature. A 24-gauge angiocath attached to tubing filled with sterile saline and connected to a pressure manometer, was inserted into the isolated segment. Then the segment was filled with the saline to a pressure of 600 mm Hg which was maintained for 5 minutes. The pressure was relieved, and the angiocath and ligatures were removed, thereby allowing for blood flow restoration. Cessation of bleeding from the needle puncture site was achieved within 3 minutes without any manual manipulation. The incisions were sutured closed with 000 proline. The rabbits were injected intramuscularly with Temgesic to minimize any pain and with 12.5 mg Baytril as an antibiotic, and then allowed to recover. This injury procedure results in endothelial denudation and the exposure of a thrombogenic surface within 1 hour of restoration of blood flow, followed by SMC proliferation and intimal hyperplasia, which plateaus at 4 weeks and which is sustained for ±12 weeks (Buchanan MR, Brister SJ: 1998; Buchanan MR et al. 1999).
(§2) Two, four or twelve weeks later, the rabbits were re-anaesthetised and their injured carotid arteries were again isolated. Segments of injured and uninjured carotid artery were harvested and processed histologically to assess VW hyperplasia. Other VW segments and blood samples were collected and processed for VW and plasma 13-HODE levels.

Data set [6] in a line: Vessel wall 13-HODE levels in rabbits after oral 13-HODE. It is filed as in vivo, New Zealand white rabbits. The method, then: as §1, with “The rabbits were injected intramuscularly with Temgesic to minimize any pain and with 12.5 mg Baytril as an antibiotic, and then allowed to recover. This injury procedure results in endothelial denudation and the exposure of a thrombogenic surface within 1 hour of restoration of blood flow, followed by SMC proliferation and intimal hyperplasia, which plateaus at 4 weeks and which is sustained for ±12 weeks (Buchanan MR, Brister SJ: 1998; Buchanan MR et al. 1999).” left out

For data set [7], the system named is VW intimal hyperplasia of injured carotid arteries. Kind of data set: Intimal hyperplasia after carotid artery pressure injury in rabbits. The class given is in vivo, New Zealand white rabbits. Conditions: for intimal hyperplasia: 1,000 μg/kg/day for 7 days. The method, then: as §1, §2
A short description of data set [8]: Observation of hemorrhagic defect in the experimental animals. Particulars: any of the experimental animals. The class given is in vivo, rabbits. The method, then: as §1, with “The rabbits were injected intramuscularly with Temgesic to minimize any pain and with 12.5 mg Baytril as an antibiotic, and then allowed to recover. This injury procedure results in endothelial denudation and the exposure of a thrombogenic surface within 1 hour of restoration of blood flow, followed by SMC proliferation and intimal hyperplasia, which plateaus at 4 weeks and which is sustained for ±12 weeks (Buchanan MR, Brister SJ: 1998; Buchanan MR et al. 1999).” left out

The nature of data set [9]: Stability of 13-HODE in dosage forms (oil or ester carrier). The class given is physicochemical. Particulars: dissolved in a triglyceride oil carrier or an ester. As for the experimental part: A real problem is presented by the fact that active daily doses of 13-HODE are in the 50 to 1,000 μg/kg/day range. […] That translates into a […] dose for a 70 kg person. Since doses for humans are often considerably lower than doses for animals because of a weight/body surface area scaling, a daily dose of as little as 5 mg or less is really possible. Formulating an oily liquid is such small doses is a problem. It could be absorbed into tabletting materials and tabletted and coated, or micro-encapsulated by methods well known to those skilled in the art. […] Other triglyceride oils such as vegetable oil, including sunflower, safflower, soy, evening primrose, borage, coconut or palm oil, or cottonseed, rapeseed, olive, fish body or fish liver oils may all be used for this purpose. Particualrly useful esters for this purpose are esters of fatty acids with 16-26 carbon atoms and one or more double bonds in the chain.

A further data set has as its system Sarcoma 180 tumors. Conditions: given orally; cited from earlier work.
The conditions of data set [10]: human, in vivo; cited from earlier work.
The mark [11] stands for this setting: suspended in ethyl-EPA, all treatment levels.

The structures appear in SMILES notation. Where two headings read alike, the source gives them in different places. Where only a bound is given, the exact number is not on record here.

As for `OCCN(CCO)c1nc(N2CCCCC2)c2nc(N(CCO)CCO)nc(N3CCCCC3)c2n1` [Persantine, dipyridamole], the “increase of VW 13-HODE” value in data set [1] is listed as 30 to 50%. Moreover, the “decrease of platelet/injured VW interactions” value in data set [2] was greater than 2 fold. Further, the SMC hyperplasia entry with intimal SMC hyperplasia (1 mg/kg/day for 7 days before injury, 4 weeks after VW injury) is “inhibited”. For the same compound, in the data set on intimal SMC hyperplasia (1 mg/kg/day for 7 days), the platelet function entry is listed as “unchanged”.

For `CCCCC/C=C\C/C=C\CCCCCCCC(=O)O` [linoleic acid, Octa-deca-9Z, 12Z-dienoic acid], the “increase of VW 13-HODE levels” value in data set [3] was 2 fold. In addition, the “decrease of platelet/injured VW interactions” value in data set [4] is on record as greater than 2 fold.

Consider `CCCCCC(O)/C=C/C=C\CCCCCCCC(=O)O` (stereo not shown) [13-HODE, 13-hydroxyoctadeca-9Z, 11E-dienoic acid], for which the “increase in the plasma 13-HODE levels” value in data set [5] (100 μg/kg/day oral, 7 days, suspended in corn oil) is on record as “three-fold”. For the same compound, the “time to significantly elevated 13-HODE level in cell-free plasma” value in data set [5] (1,000 μg/kg/day oral) is listed as no more than 3 days. Further, the “effect of increasing the dose on plasma 13-HODE levels” value in data set [5] (1,000 μg/kg/day vs 100 μg/kg/day, corn oil) is listed as “no further effect”. In addition, the “time 13-HODE level in cell-free plasma remained elevated” value in data set [5] (1,000 μg/kg/day, treatment stopped after 7 days) is listed as 4 weeks. Moreover, in [5] (after 7 day oral treatment, corn oil), the “time for plasma 13-HODE levels to return to almost control levels” value lay in the range of 14 to 21 days. Further, the “absolute levels of plasma 13-HODE versus corn oil vehicle” value in [5] (setting [11]) was “lower”. For the same compound, the “VW 13-HODE levels” value in [6] (suspended in corn oil, measured 28 days after stopping the treatment) is on record as “dose-related increase”. Moreover, in data set [6] (setting [11]), the “absolute levels of VW 13-HODE versus corn oil vehicle” value is reported as “somewhat lower”. Moreover, the “intimal VW hyperplasia” value in [7] (100 μg/kg/day for 7 days, in corn oil or ethyl-EPA, p<0.001) is recorded as “significantly inhibited”. The intimal hyperplasia in data set [7] (2 weeks after injury, placebo 18%) is recorded as 8%; in data set [7] (4 weeks after injury, placebo 38%), 16%; in [7] (12 weeks after injury), greater than 3%. Besides, in data set [8], the hemorrhagic defect result is listed as “no detectable hemorrhagic defect”. The “stability of dosage form” value in data set [9] is reported as “stable without degradation”.

Turning to `CCCCC/C=C\C=C\C(O)CCCCCCCC(=O)O` (stereo not shown) [9-HODE, 9-hydroxy-10(E)12(Z) octadecadienoic acid], in the data set on Sarcoma 180 tumors, the “minimum effective dose for inhibition of tumour growth rate” value is 55 mg/kg/day.

Regarding `CC(=O)Oc1ccccc1C(=O)O` [ASA], the “overall risk reduction (stroke, myocardial infarction, transient ischemic attacks)” value in [10] is 25%.
